Measured values as given in US20240391862A1, “(1,4,5-TRISUBSTITUTED-1H-PYRAZOL-3-YL)OXY-2-ALKOXY ALKYL ACIDS AND THEIR DERIVATIVES, THEIR SALTS AND THEIR USE AS HERBICIDAL AGENTS” (Bayer AKtiengesellschaft, priority 2021, published 2024).

Experiments:
AVEFA = assay: Post-emergence herbicidal effect, greenhouse pot test; type: in vivo, Avena fatua; conditions: visual rating about 3 weeks after treatment
Method in brief: (§1)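 Sandy loam pots, greenhouse. One-leaf stage (2–3 wk after sowing) foliar spray; WP/EC in water + 0.5% additive, 600 l/ha; 20–320 g/ha. Visual score ~3 wk, 0–100% vs untreated.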

PHBPU = assay: as above; type: in vivo, Ipomoea purpurea
Method in brief: as §1

LOLRI = assay: as above; type: in vivo, Lolium rigidum
Method in brief: as §1

VIOTR = assay: as above; type: in vivo, Viola tricolor
Method in brief: as §1

VERPE = assay: as above; type: in vivo, Veronica persica; conditions: 320 g/ha
Method in brief: as §1

DIGSA = assay: as above; type: in vivo, Digitaria sanguinalis; conditions: visual rating about 3 weeks after treatment
Method in brief: as §1

ZEAMX = assay: Post-emergence herbicidal effect and crop plant compatibility, greenhouse pot test; type: in vivo, Zea mays; conditions: one-leaf stage, rated visually after about 3 weeks vs untreated controls; for plant injury at 80 g/ha: read-out: Post-emergence effect at 80 g/ha against ZEAMX in %
Method in brief: (§2)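 Greenhouse pot plants in sandy loam receive a one-leaf-stage spray at 20 to 320 g/ha. Activity is assessed visually around 3 weeks afterwards on a 0–100% scale, where 100% means the plants have died.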

TRZAS = assay: as above; type: in vivo, Triticum aestivum; conditions: Triticum aestivum, 504 h, 20 g/ha, one-leaf stage, rated visually after about 3 weeks vs untreated controls, read-out: Post-emergence effect at 20 g/ha against TRZAS in %
Method in brief: as §2

SETVI = assay: Post-emergence herbicidal effect, greenhouse pot test; type: in vivo, Setaria viridis
Method in brief: as §1

ABUTH = assay: as above; type: in vivo, Abutilon theophrasti; conditions: visual rating about 3 weeks after treatment
Method in brief: as §1

POLCO = assay: as above; type: in vivo, Fallopia convolvulus
Method in brief: as §1

ALOMY = assay: as above; type: in vivo, Alopecurus myosuroides; conditions: 320 g/ha, visual rating about 3 weeks after treatment
Method in brief: as §1

KCHSC = assay: as above; type: in vivo
Method in brief: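 Visual rating of activity against untreated plants (100% = plants died, 0% = no effect), done about 3 weeks after treatment. Compounds applied at 20–320 g/ha as aqueous spray (600 l/ha, 0.5% additive) from WP or EC formulations onto one-leaf-stage plants grown in sandy loam under greenhouse conditions.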

ECHCG = assay: as above; type: in vivo, Echinochloa crus-galli
Method in brief: as §1

AMARE = assay: as above; type: in vivo, Amaranthus retroflexus; conditions: 320 g/ha, visual rating about 3 weeks after treatment
Method in brief: as §1

[1] = 504 h, 320 g/ha, read-out: Post-emergence effect against KCHSC in %

SMILES: CCOC(=O)C(OC)Oc1nn(-c2ncccc2F)c(-c2ccc(F)nc2)c1C(F)(F)F (stereo not shown) [Example I-55]
- pest or weed control at 80 g/ha (AVEFA; Avena fatua, 504 h, 80 g/ha, read-out: Post-emergence effect against AVEFA): 90%
- pest or weed control at 320 g/ha (AVEFA; Avena fatua, 504 h, 320 g/ha, read-out: Post-emergence effect against AVEFA): 90%
- pest or weed control at 20 g/ha (PHBPU; Ipomoea purpurea, 504 h, 20 g/ha, read-out: Post-emergence effect against PHBPU in %): 80%
- pest or weed control at 80 g/ha (PHBPU; Ipomoea purpurea, 504 h, 80 g/ha, read-out: Post-emergence effect against PHBPU in %): 80%
- pest or weed control at 320 g/ha (PHBPU; Ipomoea purpurea, 504 h, 320 g/ha, read-out: Post-emergence effect against PHBPU in %): 90%
- pest or weed control at 320 g/ha (LOLRI; Lolium rigidum, 504 h, 320 g/ha, read-out: Post-emergence effect against LOLRI in %): 90%
- pest or weed control at 80 g/ha (VIOTR; Viola tricolor, 504 h, 80 g/ha, read-out: Post-emergence effect against VIOTR in %): 80%
- pest or weed control at 320 g/ha (VIOTR; Viola tricolor, 504 h, 320 g/ha, read-out: Post-emergence effect against VIOTR in %): 90%
- pest or weed control at 320 g/ha (VERPE; Veronica persica, 504 h, read-out: Post-emergence effect against VERPE in %): 90%
- pest or weed control at 80 g/ha (DIGSA; Digitaria sanguinalis, 504 h, 80 g/ha, read-out: Post-emergence effect against DIGSA): 90%
- pest or weed control at 320 g/ha (DIGSA; Digitaria sanguinalis, 504 h, 320 g/ha, read-out: Post-emergence effect against DIGSA): 90%
- plant injury at 20 g/ha (ZEAMX; Zea mays, 504 h, 20 g/ha, read-out: Post-emergence effect at 20 g/ha against ZEAMX in %): 0%
- plant injury at 80 g/ha (ZEAMX; Zea mays, 504 h, 80 g/ha): 0%
- percent crop injury (phytotoxicity) to wheat, post-emergence at 20 g/ha (TRZAS): 20%
- pest or weed control at 320 g/ha (SETVI; Setaria viridis, 504 h, 320 g/ha, read-out: Post-emergence effect against SETVI in %): 80%
- pest or weed control at 80 g/ha (ABUTH; Abutilon theophrasti, 504 h, 80 g/ha, read-out: Post-emergence effect against ABUTH): 80%
- pest or weed control at 320 g/ha (ABUTH; Abutilon theophrasti, 504 h, 320 g/ha, read-out: Post-emergence effect against ABUTH): 90%
- pest or weed control at 80 g/ha (POLCO; Fallopia convolvulus, 504 h, 80 g/ha, read-out: Post-emergence effect against POLCO in %): 80%
- pest or weed control at 320 g/ha (POLCO; Fallopia convolvulus, 504 h, 320 g/ha, read-out: Post-emergence effect against POLCO in %): 90%
- pest or weed control at 320 g/ha (ALOMY; Alopecurus myosuroides, 504 h, read-out: Post-emergence effect against ALOMY): 90%
- pest or weed control at 80 g/ha (KCHSC; 504 h, 80 g/ha, read-out: Post-emergence effect against KCHSC in %): 90%
- pest or weed control at 320 g/ha (KCHSC; [1]): 90%
- pest or weed control at 80 g/ha (ECHCG; Echinochloa crus-galli, 504 h, 80 g/ha, read-out: Post-emergence effect against ECHCG in %): 90%
- pest or weed control at 320 g/ha (ECHCG; Echinochloa crus-galli, 504 h, 320 g/ha, read-out: Post-emergence effect against ECHCG in %): 90%

SMILES: COC(Oc1nn(-c2ncccc2F)c(-c2cncc(F)c2)c1C1CC1)C(=O)O (stereo not shown) [Example I-85]
- Post-emergence effect against AVEFA (AVEFA; 80 g/ha): 90%
- Post-emergence effect against AVEFA (AVEFA; 320 g/ha): 90%
- Post-emergence effect against PHBPU in % (PHBPU; 20 g/ha): 80%
- Post-emergence effect against PHBPU in % (PHBPU; 80 g/ha): 90%
- Post-emergence effect against PHBPU in % (PHBPU; 320 g/ha): 90%
- Post-emergence effect against LOLRI in % (LOLRI; 80 g/ha): 80%
- Post-emergence effect against LOLRI in % (LOLRI; 320 g/ha): 90%
- Post-emergence effect against VIOTR in % (VIOTR; 80 g/ha): 80%
- Post-emergence effect against VIOTR in % (VIOTR; 320 g/ha): 90%
- Post-emergence effect against VERPE in % (VERPE): 90%
- Post-emergence effect against DIGSA (DIGSA; 320 g/ha): 90%
- Post-emergence effect at 20 g/ha against ZEAMX in % (ZEAMX; 20 g/ha): 0%
- plant injury at 80 g/ha (ZEAMX; Zea mays, 504 h, 80 g/ha): 20%
- percent crop injury (phytotoxicity) to wheat, post-emergence at 20 g/ha (TRZAS): 0%
- Post-emergence effect against SETVI in % (SETVI; 80 g/ha): 90%
- Post-emergence effect against SETVI in % (SETVI; 320 g/ha): 90%
- Post-emergence effect against ABUTH (ABUTH; 80 g/ha): 80%
- Post-emergence effect against ABUTH (ABUTH; 320 g/ha): 90%
- Post-emergence effect against POLCO in % (POLCO; 80 g/ha): 90%
- Post-emergence effect against POLCO in % (POLCO; 320 g/ha): 90%
- pest or weed control at 20 g/ha (POLCO; Fallopia convolvulus, 504 h, 20 g/ha, read-out: Post-emergence effect against POLCO in %): 80%
- Post-emergence effect against ALOMY (ALOMY): 90%
- Post-emergence effect against AMARE (AMARE): 80%
- Post-emergence effect against KCHSC in % (KCHSC; 80 g/ha): 90%
- Post-emergence effect against KCHSC in % (KCHSC; 320 g/ha): 90%
- Post-emergence effect against ECHCG (ECHCG; 20 g/ha, visual rating about 3 weeks after treatment): 90%
- Post-emergence effect against ECHCG in % (ECHCG; 80 g/ha): 90%
- Post-emergence effect against ECHCG in % (ECHCG; 320 g/ha): 90%

SMILES: COC(=O)C(OC)Oc1nn(-c2ncccc2F)c(-c2ccc(F)nc2)c1C1CC1 (stereo not shown) [Example I-107]
- Post-emergence effect against AVEFA (AVEFA; 320 g/ha): 90%
- Post-emergence effect against PHBPU in % (PHBPU; 80 g/ha): 80%
- Post-emergence effect against PHBPU in % (PHBPU; 320 g/ha): 80%
- Post-emergence effect against LOLRI in % (LOLRI; 320 g/ha): 90%
- Post-emergence effect against VIOTR in % (VIOTR; 320 g/ha): 90%
- Post-emergence effect against VERPE in % (VERPE): 80%
- Post-emergence effect against DIGSA (DIGSA; 320 g/ha): 80%
- Post-emergence effect at 20 g/ha against ZEAMX in % (ZEAMX; 20 g/ha): 0%
- Post-emergence effect at 80 g/ha against ZEAMX in % (ZEAMX; 80 g/ha): 0%
- percent crop injury (phytotoxicity) to wheat, post-emergence at 20 g/ha (TRZAS): 20%
- Post-emergence effect against SETVI in % (SETVI; 320 g/ha): 90%
- Post-emergence effect against ABUTH (ABUTH; 320 g/ha): 80%
- Post-emergence effect against POLCO in % (POLCO; 80 g/ha): 90%
- Post-emergence effect against POLCO in % (POLCO; 320 g/ha): 90%
- Post-emergence effect against ALOMY (ALOMY): 100%
- Post-emergence effect against AMARE (AMARE): 80%
- pest or weed control at 320 g/ha (KCHSC; [1]): 90%
- Post-emergence effect against ECHCG in % (ECHCG; 320 g/ha): 90%
